# Active and inactive are the calls of the source. The calls are words filed in the database; no cut-off is given here.
# How the values were obtained:
# Penicillium oxalicum = assay: Antifungal activity against Penicillium oxalicum CBS 219.30 by bioautographic test; assay type: functional
# Bacillus subtilis = assay: Antibacterial activity against Bacillus subtilis ATCC 6633 up to 24 ug by bioautographic test; assay type: functional, organism-based
# Micrococcus luteus = assay: Antibacterial activity against Micrococcus luteus ATCC 9341 up to 24 ug by bioautographic test; assay type: functional, organism-based
# Escherichia coli = assay: Antibacterial activity against Escherichia coli ATCC 25922 up to 24 ug by bioautographic test; assay type: functional, organism-based
# Biomphalaria glabrata [1] = assay: Molluscicidal activity in Biomphalaria glabrata assessed as mortality at 5 ppm; assay type: functional
# [2] = Toxicity against Artemia salina assessed as mortality at 120 ug/ml; assay type: organism-based; details: in vivo, read-out: Activity
# [3] = Toxicity against Artemia salina assessed as mortality at 12 ug/ml; assay type: organism-based; details: in vivo, read-out: Activity
# Biomphalaria glabrata [4] = assay: Molluscicidal activity in Biomphalaria glabrata assessed as mortality at 6 ppm; assay type: functional, organism-based
# Artemia salina = assay: Toxicity against Artemia salina assessed as mortality; assay type: organism-based; details: in vivo
# Biomphalaria glabrata [5] = assay: Molluscicidal activity in Biomphalaria glabrata assessed as mortality at 2.5 ppm; assay type: functional
# [6] = Toxicity against Artemia salina assessed as mortality at 100 ug/ml; assay type: organism-based; details: in vivo, read-out: Activity
# [7] = Toxicity against Artemia salina assessed as mortality at 10 ug/ml; assay type: organism-based; details: in vivo, read-out: Activity
SMILES,MIC (Penicillium oxalicum) [µg],Activity (Bacillus subtilis),Activity (Micrococcus luteus),Activity (Escherichia coli),Activity (Biomphalaria glabrata [1]) [%],mortality at 120 ug/ml [2] [%],mortality at 12 ug/ml [3] [%],Activity (Biomphalaria glabrata [4]),Activity (Artemia salina),Activity (Biomphalaria glabrata [5]) [%],mortality at 100 ug/ml [6] [%],mortality at 10 ug/ml [7] [%]
C[C@]1(Cl)C[C@](C)(/C=C/Cl)[C@H](Br)C[C@@H]1Cl,0.6,inactive,inactive,inactive,100,100,26,–,–,–,–,–
C=C(/C=C/[C@@H](Cl)[C@](C)(Cl)/C=C/Br)CCl (relative stereo),0.1,inactive,inactive,inactive,–,–,–,inactive,Not Active,–,–,–
C[C@]1(Cl)C[C@](C)(Br)[C@@H](/C=C/Cl)C[C@H]1Br,10,inactive,inactive,inactive,–,–,–,–,–,100,100,20
C[C@@](Cl)(/C=C/Br)[C@@H](Cl)/C=C/C(Cl)(CCl)CBr (stereo partly specified),0.1,inactive,inactive,inactive,–,–,–,inactive,Not Active,–,–,–

# From ChEMBL document CHEMBL1158933, “A new polyhalogenated monoterpene from the red alga Plocamium cartilagineum” (J Nat Prod, 1990)
